pIC50: −log10 of the molar value.
Experiments:
Format in all cases: biochemical
[1] = target: T1, human liver microsome CYP2E1 (Homo sapiens, UniProt P05181); assay: Determination of IC50 for a CYP2E1 inhibitory effect (CZX probe, mixed liver microsome); settings: for inhibitory effect on CYP2E1 (in words): in vitro, method of Example 8; for pIC50: mixed liver microsome of healthy individuals 0.3 mg/mL, 62.5 μM CZX, 1 mM NADPH, 30 min, read-out: IC50 for 2E1 inhibition
T1 construct: metabolic activity of a mixed liver microsome CYP2E1 of a healthy individual; from tissue; host or cells: mixed (pooled) human liver microsomes of healthy individuals
Experimental: CZX was used as a probe substrate to detect an inhibitory effect of an inhibitor to be tested on the metabolic activity of a mixed liver microsome CYP2E1 of a healthy individual (IC50: half inhibition concentration; Ki: inhibition constant; the smaller the IC50 and the smaller the Ki, the higher the inhibition intensity of the inhibitor), thereby determining an inhibitory effect of the inhibitor to be tested on the human liver microsome CYP2E1.
An incubation system in a total volume of 100 μL was adopted, including a substrate, an inhibitor of different concentrations, a liver microsomal protein, and phosphate-buffered saline (PBS). The incubation system was pre-incubated in a 37° C. water bath for 5 min, reduced coenzyme was added to allow a reaction for 30 min, and then the reaction was terminated in an ice bath. In a specific experiment, a concentration of an inhibitor can be selected as required.
In this example, the incubation system includes 62.5 μM CZX, 100 mM (pH=7.4) PBS, 0.3 mg/mL liver microsomal protein, and 1 mM NADPH.
In this example, the reaction is terminated with 1 mL of ethyl acetate. In other preferred examples, the reaction may also be terminated with 1 mL of methyl tert-butyl ether (MTBE), 1 mL of diethyl ether, or 100 μL of methanol.

CYP2A6 = target: T2, CYP2A6 (Homo sapiens, UniProt P11509); assay: Determination of selectivity of a CYP2E1 inhibitor: CYP2A6; settings: mixed human liver microsome, 2.5 μM coumarin probe; read-out: IC50 for 2A6 inhibition
T2 construct: With a mixed liver microsome of a healthy individual as a research object; from tissue; host or cells: mixed (pooled) human liver microsomes of healthy individuals
From the text: (§1) With a mixed liver microsome of a healthy individual as a research object, probe drugs CYP1A2, CYP2A6, CYP2B6, CYP2C8, CYP2C9, CYP2C19, CYP2D6, CYP2E1, and CYP3A4 were selected to determine an in vitro inhibitory effect of an inhibitor to be tested on the metabolism of the probe drugs CYP1A2, CYP2A6, CYP2B6, CYP2C8, CYP2C9, CYP2C19, CYP2D6, CYP2E1, and CYP3A4 for the mixed liver microsome of the healthy human, and the selectivity of the inhibitor to be tested for a CYP2E1 inhibitory effect was evaluated.
(§2) The CYP1A2 probe is 6.25 μM to 800 μM phenacetin or 27.5 μM to 12,520 μM caffeine; • the CYP2A6 probe is 0.156 μM to 20 μM coumarin or 12.5 μM to 2,000 μM nicotine; • the CYP2B6 probe is 7.8 μM to 500 μM bupropion or 0.25 mM to 30 mM cyclophosphamide; • the CYP2C8 probe is 2.5 μM to 80 μM paclitaxel or 0.125 μM to 128 μM amodiaquine; • the CYP2C9 probe is 31.25 μM to 2,000 μM tolbutamide or 0.1 μM to 200 μM diclofenac; • the CYP2C19 probe is 3.9 μM to 500 μM omeprazole or 1.95 μM to 1,000 μM mephenytoin; • the CYP2D6 probe is 0.625 μM to 96 μM dextromethorphan or 0.0195 μM to 80 μM propafenone; and • the CYP3A4 probe is 0.39 μM to 50 μM midazolam or 1.98 μM to 1,000 μM testosterone.
(§3) An incubation system in a total volume of 100 μL was adopted, including a substrate, an inhibitor of different concentrations, a liver microsomal protein, and PBS. […]

CYP2C9 = target: T3, CYP2C9 (Homo sapiens, UniProt P11712); assay: Determination of selectivity of a CYP2E1 inhibitor: CYP2C9; settings: mixed human liver microsome, 250 μM tolbutamide probe; read-out: IC50 of the inhibition for CYP2C9
T3 construct: With a mixed liver microsome of a healthy individual as a research object; from tissue; host or cells: mixed (pooled) human liver microsomes of healthy individuals
From the text: as §1, §2, §3

T1 sequence (P05181 whole entry): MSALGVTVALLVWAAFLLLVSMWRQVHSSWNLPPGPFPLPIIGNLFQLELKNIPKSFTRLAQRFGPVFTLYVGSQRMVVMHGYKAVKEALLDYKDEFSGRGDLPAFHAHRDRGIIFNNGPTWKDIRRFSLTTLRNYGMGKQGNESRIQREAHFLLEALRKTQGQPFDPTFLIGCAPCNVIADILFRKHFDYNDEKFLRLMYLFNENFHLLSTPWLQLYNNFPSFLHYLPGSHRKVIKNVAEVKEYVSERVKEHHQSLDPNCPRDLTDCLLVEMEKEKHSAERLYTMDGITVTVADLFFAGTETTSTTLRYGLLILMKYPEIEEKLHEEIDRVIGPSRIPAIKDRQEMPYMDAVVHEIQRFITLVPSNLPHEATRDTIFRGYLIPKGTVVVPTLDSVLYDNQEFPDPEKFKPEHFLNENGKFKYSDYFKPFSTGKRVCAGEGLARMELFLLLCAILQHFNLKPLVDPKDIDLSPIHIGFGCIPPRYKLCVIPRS
T2 sequence (P11509 whole entry): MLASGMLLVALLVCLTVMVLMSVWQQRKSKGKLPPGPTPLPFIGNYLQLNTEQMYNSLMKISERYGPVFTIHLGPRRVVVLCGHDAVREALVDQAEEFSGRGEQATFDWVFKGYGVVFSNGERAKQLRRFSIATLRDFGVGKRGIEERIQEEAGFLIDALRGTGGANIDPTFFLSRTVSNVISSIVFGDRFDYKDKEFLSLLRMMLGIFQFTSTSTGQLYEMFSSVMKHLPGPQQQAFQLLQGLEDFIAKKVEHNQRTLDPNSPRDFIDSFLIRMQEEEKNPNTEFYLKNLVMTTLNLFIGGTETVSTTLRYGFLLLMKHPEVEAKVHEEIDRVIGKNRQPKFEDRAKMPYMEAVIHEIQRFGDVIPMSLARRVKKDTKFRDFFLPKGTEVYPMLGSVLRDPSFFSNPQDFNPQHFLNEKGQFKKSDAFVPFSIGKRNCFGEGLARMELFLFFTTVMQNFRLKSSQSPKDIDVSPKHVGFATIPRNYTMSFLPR
T3 sequence (P11712 whole entry): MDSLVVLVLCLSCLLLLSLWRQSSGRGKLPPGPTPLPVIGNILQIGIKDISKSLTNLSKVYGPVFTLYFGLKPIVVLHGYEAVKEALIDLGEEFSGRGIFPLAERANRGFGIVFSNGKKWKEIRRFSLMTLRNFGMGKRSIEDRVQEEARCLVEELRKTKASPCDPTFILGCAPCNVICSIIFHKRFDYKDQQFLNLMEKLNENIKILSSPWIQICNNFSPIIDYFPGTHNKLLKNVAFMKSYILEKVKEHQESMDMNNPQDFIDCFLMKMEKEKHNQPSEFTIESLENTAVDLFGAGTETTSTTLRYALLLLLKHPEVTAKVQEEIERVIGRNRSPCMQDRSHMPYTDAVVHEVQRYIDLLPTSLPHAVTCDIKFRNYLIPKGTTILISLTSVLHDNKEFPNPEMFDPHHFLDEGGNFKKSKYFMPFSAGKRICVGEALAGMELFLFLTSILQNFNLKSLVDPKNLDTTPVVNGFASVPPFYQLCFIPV

In the case of CCc1nc(COC(=O)c2cccn2Cc2ccncc2)cs1 [SMI1], the “inhibitory effect on CYP2E1 (in words)” value [1] was “significant inhibitory effect”, the pIC50 [1] was 5.10 and the pIC50 (CYP2A6) was 4.25. For the same compound, the pIC50 (CYP2C9) was 5.73.
CO/N=C(\C)c1scnc1C [SMI8] was tested, and the “inhibitory effect on CYP2E1 (in words)” value [1] was “significant inhibitory effect” and the pIC50 [1] was 4.77.
COc1cccc(/C=C/C(=O)c2scnc2C)c1 [SMI10] was tested, and the “inhibitory effect on CYP2E1 (in words)” value [1] was “slight inhibitory effect” and the pIC50 [1] was 3.94.

Reference: patent US20230277508A1, “USE OF COMPOUND AS CYP2E1 INHIBITOR” (SHANGHAI LING XI BIOTECHNOLOGY DEVELOPMENT CO., LTD., priority 2020, published 2023)
